The test system of the assay is human acute myeloid leukemia cell line MV-4-11. Briefly: Cytostatic activity on leukemia cell line (WST-1 assay). Type of assay: cell-based. Particulars: MV-4-11 cells, test compound 10 μmol/L, 72 hours. The procedure: The cytostatic rate (%) of a test compound on human acute myeloid leukemia cell line MV-4-11 was determined in the following manner.
Each cell was cultured using Roswell Park Memorial Institute's Medium (RPMI) 1640 (Gibco, Catalog No. 11875-093) containing 10% fetal bovine serum (Gibco, Catalog. No. 10437-028) and 1% penicillin/streptomycin (1:1) (Gibco, Catalog No. 15140-122). Each 80 μL of the MV-4-11 cell having a concentration of 7.5×10^4 cells/mL (or K562 cell having a concentration of 2.5×10^4 cells/mL) was inoculated to wells of a TC MICROWELL 96U plate (Nalge Nunc International, Catalog No. 163320) and was cultured in a 5% carbon dioxide gas incubator at 37° C. for 4 hours. As a blank, only RPMI medium (80 μL) was added to a well. […] Then, the absorbances at 450 nm (reference wavelength: 690 nm) were determined with a microplate spectrophotometer SPECTRA max 340PC (Molecular Devices Corporation). The relative growth (%) of a well to which the test compound had been added was determined while setting the absorbance of a well to which not the test compound but DMSO alone had been added (control) at 100% and that of a well containing RPMI medium alone at 0%. The cytostatic rate (%) of the test compound was determined by subtracting the calculated relative growth from 100.
(In general: Formazan colour is commonly taken as a measure of viable cells.)

SMILES strings stand for the structures.

Turning to `CCNc1nc(NCCc2ccncc2)ncc1-c1nnc(CN2CCN(C)CC2)o1` [Compound 4-32], the “cytostatic rate MV-4-11 (%, 10 μmol/L)” value is 99%.

The values are drawn from patent US7956060B2, “Pyrimidine derivative compound” (Kyowa Hakko Kirin Co., Ltd., priority 2004, dated 2011).
